In experiment [1] the target is human EGFR (native sequence) (Homo sapiens, UniProt P00533). Put plainly: Kinase inhibition, human EGFR (native sequence). The format is biochemical. Conditions: 10 μM ATP; 10 pt curves, 3 μM top concentration (singlicates). Put shortly: (§1)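 Kinase inhibition was measured against native human EGFR and the L858R and L858R/T790M mutants. Compounds were run as 10-point curves in singlicate from a 3 μM top concentration, with 10 μM ATP.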

In experiment [2] the target is EGFR bearing the L858R mution (Homo sapiens, UniProt P00533, L858R). Put plainly: Kinase inhibition, EGFR L858R. Particulars: 10 μM ATP; 10 pt curves, 3 μM top concentration (singlicates). The format is biochemical. In a few lines:
as §1

For experiment [3], the target named is EGFR bearing the L858R/T790M double mutation (Homo sapiens, UniProt P00533, L858R/T790M). The experiment in a line: Kinase inhibition, EGFR L858R/T790M. The format is biochemical. Conditions: 10 μM ATP; 10 pt curves, 3 μM top concentration (singlicates). In a few lines:
as §1

Another experiment concerns BAF3 PARENTAL
Put plainly: Cell proliferation (MTT), BAF3 parental. Particulars: Mus musculus. The format is cell-based. As to the method: We also assessed the antiproliferative activity of compounds of Formula (I) against BaF3 cells expressing the target EGFR mutations or control (i.e., cell lines expressing wildtype EGFR). Assays were conducted using MTT.

In experiment [4] the target is BAF3 EGFR DEL T790M PURO POOL (Homo sapiens, UniProt P00533, DEL746-750/T790M, cells depend on it). Put plainly: Cell proliferation (MTT), BAF3 EGFR DEL T790M. The format is cell-based. In a few lines: (§2)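 Viability by MTT colorimetry. Cells: BaF3 transfected with mutant EGFR, plus a wildtype-EGFR BaF3 counter-screen.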
Experiment [5] concerns BAF3 EGFR L858R-T790M PURO POOL. The experiment in a line: Cell proliferation (MTT), BAF3 EGFR L858R-T790M. Particulars: Ba/F3 EGFR. The format is cell-based. In a few lines: as §2

Sequence of human EGFR (native sequence) (P00533 25-1210): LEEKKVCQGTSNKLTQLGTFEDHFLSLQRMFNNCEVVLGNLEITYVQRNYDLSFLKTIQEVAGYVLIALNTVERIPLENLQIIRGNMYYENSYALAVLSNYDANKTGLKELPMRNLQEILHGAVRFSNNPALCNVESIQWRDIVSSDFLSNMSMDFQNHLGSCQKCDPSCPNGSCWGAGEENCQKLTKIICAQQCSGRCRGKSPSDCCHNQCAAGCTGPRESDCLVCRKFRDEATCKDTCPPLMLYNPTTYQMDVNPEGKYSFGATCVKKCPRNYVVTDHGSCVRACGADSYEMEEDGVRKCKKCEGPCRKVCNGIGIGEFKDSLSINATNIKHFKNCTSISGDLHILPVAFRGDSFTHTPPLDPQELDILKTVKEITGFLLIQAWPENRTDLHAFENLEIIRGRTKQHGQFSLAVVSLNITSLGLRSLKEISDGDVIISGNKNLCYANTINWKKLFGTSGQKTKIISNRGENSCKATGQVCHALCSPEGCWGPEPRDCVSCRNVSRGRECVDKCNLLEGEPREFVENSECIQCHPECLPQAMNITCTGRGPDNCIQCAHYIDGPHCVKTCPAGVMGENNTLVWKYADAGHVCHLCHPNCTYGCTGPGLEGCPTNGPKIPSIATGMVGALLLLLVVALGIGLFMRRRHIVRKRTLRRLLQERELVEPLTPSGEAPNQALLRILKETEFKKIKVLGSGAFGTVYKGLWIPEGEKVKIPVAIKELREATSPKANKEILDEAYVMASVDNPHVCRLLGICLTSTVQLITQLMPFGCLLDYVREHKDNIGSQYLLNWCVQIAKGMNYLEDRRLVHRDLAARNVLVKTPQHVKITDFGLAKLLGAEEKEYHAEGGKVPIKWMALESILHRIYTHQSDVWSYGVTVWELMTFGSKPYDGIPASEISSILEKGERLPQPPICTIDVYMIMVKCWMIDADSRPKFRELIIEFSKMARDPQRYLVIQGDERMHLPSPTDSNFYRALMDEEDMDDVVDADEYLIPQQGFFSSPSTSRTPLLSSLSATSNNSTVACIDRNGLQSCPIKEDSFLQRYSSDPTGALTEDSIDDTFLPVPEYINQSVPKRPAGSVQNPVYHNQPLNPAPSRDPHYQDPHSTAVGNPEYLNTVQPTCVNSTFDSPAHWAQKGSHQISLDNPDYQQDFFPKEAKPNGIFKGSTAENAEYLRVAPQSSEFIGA
Sequence of EGFR bearing the L858R mution (P00533 25-1210 L858R): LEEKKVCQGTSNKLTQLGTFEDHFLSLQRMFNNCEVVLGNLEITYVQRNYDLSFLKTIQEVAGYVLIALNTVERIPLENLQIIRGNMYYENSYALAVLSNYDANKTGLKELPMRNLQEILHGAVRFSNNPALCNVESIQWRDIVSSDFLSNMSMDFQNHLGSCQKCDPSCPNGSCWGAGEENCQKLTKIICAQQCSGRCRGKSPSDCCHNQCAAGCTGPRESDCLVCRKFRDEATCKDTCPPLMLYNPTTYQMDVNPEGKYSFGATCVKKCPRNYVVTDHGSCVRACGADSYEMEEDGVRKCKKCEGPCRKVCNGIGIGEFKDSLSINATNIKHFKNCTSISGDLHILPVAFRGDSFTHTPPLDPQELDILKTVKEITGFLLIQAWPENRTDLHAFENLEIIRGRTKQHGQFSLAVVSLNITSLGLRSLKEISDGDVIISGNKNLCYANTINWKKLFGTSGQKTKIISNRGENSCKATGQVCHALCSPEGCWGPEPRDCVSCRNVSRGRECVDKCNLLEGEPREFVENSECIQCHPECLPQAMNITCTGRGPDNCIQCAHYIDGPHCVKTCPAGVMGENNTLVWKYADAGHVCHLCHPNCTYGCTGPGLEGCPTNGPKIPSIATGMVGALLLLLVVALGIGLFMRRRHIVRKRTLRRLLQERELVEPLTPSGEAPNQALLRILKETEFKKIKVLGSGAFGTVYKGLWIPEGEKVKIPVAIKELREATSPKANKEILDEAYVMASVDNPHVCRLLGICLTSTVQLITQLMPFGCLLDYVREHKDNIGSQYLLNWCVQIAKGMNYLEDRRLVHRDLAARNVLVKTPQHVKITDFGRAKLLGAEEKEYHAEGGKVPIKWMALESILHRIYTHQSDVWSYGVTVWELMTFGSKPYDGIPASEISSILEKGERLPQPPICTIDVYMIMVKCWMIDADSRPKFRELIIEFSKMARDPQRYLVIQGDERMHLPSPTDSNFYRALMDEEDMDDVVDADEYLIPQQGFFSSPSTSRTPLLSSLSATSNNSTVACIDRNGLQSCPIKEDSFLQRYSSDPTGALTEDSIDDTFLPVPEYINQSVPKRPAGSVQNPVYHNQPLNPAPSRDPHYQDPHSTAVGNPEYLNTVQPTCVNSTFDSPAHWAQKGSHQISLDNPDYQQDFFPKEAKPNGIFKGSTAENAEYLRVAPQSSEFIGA
Sequence of BAF3 EGFR DEL T790M PURO POOL (P00533 with tags, fused parts or gaps DEL746-750/T790M): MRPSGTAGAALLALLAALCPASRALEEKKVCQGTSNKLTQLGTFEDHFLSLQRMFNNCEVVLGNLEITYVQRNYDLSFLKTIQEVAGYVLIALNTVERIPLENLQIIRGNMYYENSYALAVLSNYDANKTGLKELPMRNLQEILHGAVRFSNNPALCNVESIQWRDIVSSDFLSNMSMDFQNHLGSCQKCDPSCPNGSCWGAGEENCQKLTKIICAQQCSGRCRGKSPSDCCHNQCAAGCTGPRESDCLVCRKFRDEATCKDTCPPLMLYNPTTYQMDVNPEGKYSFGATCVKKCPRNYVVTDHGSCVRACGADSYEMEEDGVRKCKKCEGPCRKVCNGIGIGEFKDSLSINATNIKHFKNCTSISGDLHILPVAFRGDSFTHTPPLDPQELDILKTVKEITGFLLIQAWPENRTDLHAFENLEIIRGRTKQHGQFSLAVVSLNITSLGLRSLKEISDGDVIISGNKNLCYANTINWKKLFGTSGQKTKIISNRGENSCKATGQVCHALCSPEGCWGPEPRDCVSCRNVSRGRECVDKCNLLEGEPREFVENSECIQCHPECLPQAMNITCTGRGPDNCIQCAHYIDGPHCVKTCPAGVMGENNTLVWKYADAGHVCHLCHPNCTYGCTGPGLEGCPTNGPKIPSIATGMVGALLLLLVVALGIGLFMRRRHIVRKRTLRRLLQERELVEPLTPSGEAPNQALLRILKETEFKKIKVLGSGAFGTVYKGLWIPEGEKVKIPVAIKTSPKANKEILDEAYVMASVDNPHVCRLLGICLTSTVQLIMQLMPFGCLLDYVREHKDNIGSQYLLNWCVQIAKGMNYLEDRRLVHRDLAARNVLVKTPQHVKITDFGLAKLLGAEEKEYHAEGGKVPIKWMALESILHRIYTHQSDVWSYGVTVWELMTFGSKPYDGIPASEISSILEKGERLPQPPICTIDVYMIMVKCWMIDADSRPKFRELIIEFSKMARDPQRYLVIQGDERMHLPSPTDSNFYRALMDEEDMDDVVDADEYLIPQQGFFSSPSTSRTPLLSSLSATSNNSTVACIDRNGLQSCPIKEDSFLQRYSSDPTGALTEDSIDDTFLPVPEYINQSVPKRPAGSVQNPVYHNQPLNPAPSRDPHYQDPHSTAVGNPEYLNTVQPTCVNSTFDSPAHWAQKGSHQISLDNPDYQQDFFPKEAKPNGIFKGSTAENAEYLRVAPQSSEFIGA
Sequence of EGFR bearing the L858R/T790M double mutation (P00533 25-1210 T790M/L858R): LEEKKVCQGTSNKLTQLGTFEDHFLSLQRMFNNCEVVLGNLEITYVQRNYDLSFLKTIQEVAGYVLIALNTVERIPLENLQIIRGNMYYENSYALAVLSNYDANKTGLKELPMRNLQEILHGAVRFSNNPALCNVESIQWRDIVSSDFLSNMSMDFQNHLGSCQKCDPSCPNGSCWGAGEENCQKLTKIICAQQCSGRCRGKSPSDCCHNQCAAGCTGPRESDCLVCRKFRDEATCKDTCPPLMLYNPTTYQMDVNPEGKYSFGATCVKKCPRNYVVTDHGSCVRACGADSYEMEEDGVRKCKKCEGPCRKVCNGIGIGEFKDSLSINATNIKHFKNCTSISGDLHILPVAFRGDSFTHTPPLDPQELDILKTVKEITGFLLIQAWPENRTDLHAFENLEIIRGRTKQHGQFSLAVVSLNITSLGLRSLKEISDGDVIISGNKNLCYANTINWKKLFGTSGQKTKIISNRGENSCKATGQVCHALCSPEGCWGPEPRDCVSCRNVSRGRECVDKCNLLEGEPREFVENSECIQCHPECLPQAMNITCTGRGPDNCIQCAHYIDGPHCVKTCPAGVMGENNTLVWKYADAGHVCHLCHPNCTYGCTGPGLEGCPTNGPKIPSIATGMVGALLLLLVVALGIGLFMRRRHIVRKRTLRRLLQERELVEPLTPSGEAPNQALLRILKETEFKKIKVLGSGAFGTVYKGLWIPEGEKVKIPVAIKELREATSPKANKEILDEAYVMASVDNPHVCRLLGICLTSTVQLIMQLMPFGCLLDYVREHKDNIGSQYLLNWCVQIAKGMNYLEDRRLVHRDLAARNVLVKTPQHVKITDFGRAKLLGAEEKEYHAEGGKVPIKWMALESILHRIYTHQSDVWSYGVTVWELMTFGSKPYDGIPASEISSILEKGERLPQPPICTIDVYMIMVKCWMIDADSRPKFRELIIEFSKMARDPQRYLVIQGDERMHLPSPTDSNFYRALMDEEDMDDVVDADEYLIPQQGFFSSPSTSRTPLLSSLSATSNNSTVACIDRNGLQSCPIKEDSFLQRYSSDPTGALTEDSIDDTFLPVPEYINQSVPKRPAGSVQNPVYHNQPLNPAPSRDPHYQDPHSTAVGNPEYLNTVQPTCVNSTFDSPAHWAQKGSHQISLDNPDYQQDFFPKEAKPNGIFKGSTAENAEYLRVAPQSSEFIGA

Turning to `C=CC(=O)Nc1ccc(OC)c(Nc2ncc(Cl)c(Nc3cccc(C)c3P(=O)(CC)CC)n2)c1` [Example 50, N-(3-((5-chloro-4-((2-(diethylphosphoryl)-3-methylphenyl)amino)pyrimidin-2-yl)amino)-4-methoxyphenyl)acrylamide], the IC50 in experiment [1] is below 51 nM; in experiment [2] it was below 51 nM; in experiment [3], below 51 nM; in the experiment with BAF3 PARENTAL it was at least 250 nM; in experiment [4] it was below 51 nM; in experiment [5], below 51 nM.

For the compound `C=CC(=O)Nc1cc(Nc2ncc(Cl)c(Nc3ccccc3P(C)(C)=O)n2)c(OC)cc1OCCN(C)C` [Example 19, N-(5-((5-chloro-4-((2-(dimethylphosphoryl)phenyl)amino)pyrimidin-2-yl)amino)-2-(2-(dimethylamino)ethoxy)-4-methoxyphenyl)acrylamide], the IC50 in experiment [1] was below 51 nM; in experiment [2] it was below 51 nM; in experiment [3], below 51 nM; with BAF3 PARENTAL, at least 250 nM; in experiment [4] it was below 51 nM; in experiment [5] it was below 51 nM.

Consider `C=CC(=O)Nc1cc(Nc2ncc(CC)c(Nc3ccccc3P(C)(C)=O)n2)c(OC)cc1N(C)CCN(CC)CC` [Example 62, N-(2-((2-(diethylamino)ethyl)(methyl)amino)-5-((4-((2-(dimethylphosphoryl)phenyl)amino)-5-ethylpyrimidin-2-yl)amino)-4-methoxyphenyl)acrylamide], for which the half-maximal inhibitory concentration (IC50) was 51 to 100 nM in experiment [1]; below 51 nM in experiment [2]; 51 to 100 nM in experiment [3]; at least 250 nM in the experiment on BAF3 PARENTAL; below 51 nM in experiment [4]; below 51 nM in experiment [5].

On to `C=CC(=O)Nc1cc(Nc2ncc(Cl)c(Nc3ccccc3P(C)(C)=O)n2)c(OC)cc1N(CC)CCN(CC)CC` [Example 61, N-(5-((5-chloro-4-((2-(dimethylphosphoryl)phenyl)amino)pyrimidin-2-yl)amino)-2-((2-(diethylamino)ethyl)(ethyl)amino)-4-methoxyphenyl)acrylamide], for which the IC50 is below 51 nM in experiment [1]; below 51 nM in experiment [2]; below 51 nM in experiment [3]; at least 250 nM in the experiment with BAF3 PARENTAL; below 51 nM in experiment [4]; below 51 nM in experiment [5].

Turning to `C=CC(=O)Nc1cc(Nc2ncc(Cl)c(Nc3ccccc3P(C)(C)=O)n2)c(OC)cc1OC(COC)CN(C)C` (stereo not drawn) [Example 28, N-(5-((5-chloro-4-((2-(dimethylphosphoryl)phenyl)amino)pyrimidin-2-yl)amino)-2-((1-(dimethylamino)-3-methoxypropan-2-yl)oxy)-4-methoxyphenyl)acrylamide], the IC50 is below 51 nM in experiment [1]; below 51 nM in experiment [2]; below 51 nM in experiment [3]; at least 250 nM in the experiment with BAF3 PARENTAL; below 51 nM in experiment [4]; below 51 nM in experiment [5].

With `C=CC(=O)Nc1ccc(OC)c(Nc2ncc(Cl)c(Nc3ccccc3P(=O)(CC)CC)n2)c1` [Example 15, N-(3-((5-chloro-4-((2-(diethylphosphoryl)phenyl)amino)pyrimidin-2-yl)amino)-4-methoxyphenyl)acrylamide], the half-inhibitory concentration (IC50) in experiment [1] was below 51 nM; in experiment [2] it was below 51 nM; in experiment [3], below 51 nM; with BAF3 PARENTAL, at least 250 nM; in experiment [4] it was below 51 nM; in experiment [5], below 51 nM.

In the case of `C=CC(=O)Nc1ccc(OC)c(Nc2ncc(CC)c(Nc3ccccc3P(C)(C)=O)n2)c1` [Example 63, N-(3-((4-((2-(dimethylphosphoryl)phenyl)amino)-5-ethylpyrimidin-2-yl)amino)-4-methoxyphenyl)acrylamide], the IC50 is below 51 nM in experiment [1]; below 51 nM in experiment [2]; below 51 nM in experiment [3]; at least 250 nM in the experiment on BAF3 PARENTAL; below 51 nM in experiment [4]; below 51 nM in experiment [5].

Source of the values: US9834518B2, “Compounds for inhibiting cell proliferation in EGFR-driven cancers” (ARIAD Pharmaceuticals, Inc., priority 2011, dated 2017).
